Assay results as given in patent US20070203066A1, “Compositions and methods for inhibiting cellular proliferation” (priority 2005, published 2007).
Primed or numbered codes have the meaning given here. No end group written: not given here. Ida = iminodiacetic acid linker, its two carboxyls bind the Lys side-chain amines of two peptides, giving a homodimer; Ida″ = iminodiacetic acid linker bound to the Lys side-chain amine, forming a dimer

Test system: HUVECs
Format: cell-based
Settings: 48 h
In short: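 HUVECs seeded at 5,000 cells/well in EBM with 2% FCS, adhered ≥12 hours, then stimulated with bFGF 10 ng/ml or VEGF 5 ng/ml plus varying peptide concentrations. After 48 hours at 37 ° C, 5% CO2, proliferation inhibition read by BrdU incorporation.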

Q: With `CC[C@H](C)[C@H](NC(=O)[C@H](C)NC(=O)[C@@H](NC(=O)[C@H](C)NC(=O)[C@H](CCC(N)=O)NC(=O)[C@H](CCCNC(=N)N)NC(=O)[C@H](CCCNC(=N)N)NC(=O)[C@H](CCCNC(=N)N)NC(=O)[C@H](C)NC(=O)[C@H](CCCNC(=N)N)NC(C)=O)C(C)C)C(=O)N[C@@H](CC(N)=O)C(=O)N[C@@H](Cc1ccccc1)C(=O)N[C@@H](CCCCNC(=O)CN(CC(=O)NCCCC[C@H](NC(=O)[C@H](Cc1ccccc1)NC(=O)[C@H](CC(N)=O)NC(=O)[C@@H](NC(=O)[C@H](C)NC(=O)[C@@H](NC(=O)[C@H](C)NC(=O)[C@H](CCC(N)=O)NC(=O)[C@H](CCCNC(=N)N)NC(=O)[C@H](CCCNC(=N)N)NC(=O)[C@H](CCCNC(=N)N)NC(=O)[C@H](C)NC(=O)[C@H](CCCNC(=N)N)NC(C)=O)C(C)C)[C@@H](C)CC)C(N)=O)C(=O)CCNC(=O)OC(C)(C)C)C(N)=O` [Peptide 272] as the compound, how does the IC50 read?
A: < 10 µM

Same assay, conditions: HUVEC proliferation, bFGF at 10 ng/ml or VEGF at 5 ng/ml, 48 hours, BrdU incorporation; read-out: IC50 on HUVECs

Q: How did the IC50 turn out when “499 (Ac-PRYRRQAVAIYFK(Ida″); not fully specified (C-terminus); also: homodimer via Ida linker on Lys13 side chain) [compound 499]” was run?
A: < 10 µM

Q: “309 (Ac-RRRRRQAK(Ida)RIIFV; also: homodimer via Ida linker on Lys8 side chain) [compound 309]” was tested. Which IC50 did it give?
A: < 10 µM

Q: “512 (Ac-ARRRRGRVAIYFK; not fully specified (C-terminus); also: homodimer via Ida linker at Lys13 side chain) [compound 512]” was tested. Which IC50 did it give?
A: < 10 µM

Q: With “219 (Ac-RRARRQAVAIIF; also: dimer: Phe C-termini joined via Lys linker) [compound 219]” as the compound, how does the IC50 read?
A: < 10 µM

Q: Which IC50 does the source give for “323 (Ac-RHRRRQHVRIYFK(Ida)-NH2; also: homodimer via Ida linker on Lys13 side chain) [compound 323]” here?
A: < 10 µM

Q: With “333 (Ac-RHHRRQHVRIYFK; not fully specified (residue 13, C-terminus); also: homodimer via Ida linker on Lys13 side chain) [compound 333]” as the compound, how does the IC50 read?
A: < 10 µM

Q: For “232 (XRRRHQRVRIIF; Xaa = Acylated Histidine; Dimeric peptide wherein the C terminus of Phe in position 12 of one peptide chain is covalently bound to one of the amino groups of a Lysine linker and Phe of the remaining peptide chain is covalently bound to the other amino group of the Lysine linker.) [compound 232]”, which IC50 is on record?
A: < 10 µM

Q: Which IC50 does the source give for KTKRKRKKQAVKIIFVQNM [compound 114] here?
A: > 30 µM

Q: For “328 (XRHRRQHVRIYFK; not fully specified; Xaa = Acylated Histidine; The side chain of Lysine at position 13 is covalently bound to an Ida linker forming a homodimer of residues 1 through 13.) [compound 328]”, which IC50 is on record?
A: < 10 µM

Q: For “51 (Ac-KTKRKRKKQRVKIAYEEIFVQNMK; also: homodimer via Ida linker on Lys24 side chain) [compound 51]”, which IC50 is on record?
A: < 10 µM

Q: For “175 (Ac-RRARRQRVRIIF; also: homodimer via C-terminal Lys linker) [compound 175]”, which IC50 is on record?
A: < 10 µM

Q: How did the IC50 turn out when “378 (Ac-ARRRRQRVAIQFK-NH2; not fully specified (residue 13); also: homodimer via Ida linker on Lys13 side chain, Ida amine Boc) [compound 378]” was run?
A: < 10 µM

Q: “313 (Ac-RARRRQAVAIGFK(Ida)-NH2; also: homodimer via Ida linker on Lys13 side chain) [compound 313]” was tested. Which IC50 did it give?
A: 10 to 30 µM

Q: For TKRKRKKQQRVKIAYEEIFV [compound 74], which IC50 is on record?
A: > 30 µM

Q: With “285 (Ac-RRRRHQAVHIYFK-NH2; not fully specified (residue 13); also: homodimer via Ida linker on Lys13 side chain) [compound 285]” as the compound, how does the IC50 read?
A: < 10 µM
